Measurements from patent publication US11179433B2, “Mouth freshener” (ARI HEALTHCARE PVT. LTD., priority 2014, dated 2021).

Legend:
Type in all cases: cell-based
Conditions in all cases: control, concentration not given, 100 μl per well
Escherichia coli = experiment: Anti-microbial activity, agar well diffusion (zone of inhibition)
Procedure: (§1) The anti-microbial activity and the anti-fungal activity of the mouth freshener composition of the present disclosure was determined by testing it on Escherichia coli, Staphylococcus aureus and Candida albicans as the test microorganisms in comparison with a product presently available in the market (herein forward referred to as Product X), methanol and a standard drug i.e. Chlorhexidine. Escherichia coli, Staphylococcus aureus were grown in Luria-Bertani broth (LB broth) and Candida albicans was grown in Potato Dextrose broth (PD broth) until the growth reached approximately 10^6 cfu (colony forming units) per ml culture was attained. 100 μl of this culture was used for the antimicrobial assay. The 1-4% solution of powder extract was prepared by dissolving the extract in methanol as a solvent and all these solutions were store at 4° C. temperature till further use. Mueller-Hinton (HiMedia) agar plates were used to carry out the testing of the anti-microbial activity and Potato dextrose (Himedia) agar plates were used to carry out the testing of the anti-fungal activity of the mouth freshener composition. The dried surface of a Mueller-Hinton agar plate was inoculated by spreading 100 μl culture suspension on the agar surface. […]

Staphylococcus aureus = experiment: as above
Procedure: as §1

Candida albicans = experiment: Anti-fungal activity, agar well diffusion (zone of inhibition)
Procedure: as §1

[H]/N=C(\N/C(=N/[H])NCCCCCCNC(=N)NC(=N)Nc1ccc(Cl)cc1)Nc1ccc(Cl)cc1 [Chlorhexidine]
Zone of inhibition (Escherichia coli): 15 mm | Zone of inhibition (Staphylococcus aureus): 18 mm | Zone of inhibition (Candida albicans): 19 mm
